Reference: ChEMBL document CHEMBL5634101, “Discovery of NLRP3 inhibitors using machine learning: Identification of a hit compound to treat NLRP3 activation-driven diseases” (Eur J Med Chem, 2023)

Tests used:
[1] = Stability in human liver microsomes assessed as half-life at 1.5 uM measured upto 45 mins in presence of NADPH by LC-MS/MS analysis; type: ADME, Microsome
[2] = Stability in human liver microsomes assessed as intrinsic clearance at 1.5 uM measured upto 45 mins in presence of NADPH by LC-MS/MS analysis; type: ADME, Microsome; conditions: read-out: CLH

`O=C(c1ccc(F)cc1)C1CCN(CCn2c(=O)[nH]c3ccccc3c2=O)CC1` [KETANSERIN] gave a half-life at 1.5 µM [1] of 1.68 h and a CLint scaled at 1.5 µM [2] of 17.3 mL/min/kg.
